In ChEMBL document CHEMBL1821630, “Synthesis and antitumor activity of new sulfonamide derivatives of thiadiazolo[3,2-a]pyrimidines” (Eur J Med Chem, 2011):
In brackets after ≈: the same amount, converted by molar mass. Activity calls are given as the source filed them. The calls are words filed in the database; no cut-off is given here.

Assays:
[1] = molecular target: Nucleic Acid; assay: Displacement of methyl green dye from DNA after 24 hrs by spectrophotometric analysis; format: nucleic-acid assay
[2] = system: Nucleic Acid; assay: Binding affinity to DNA using anisaldehyde reagent by TLC method; format: nucleic-acid assay
[3] = Antitumor activity against mouse EAC cells xenografted in Swiss albino mouse assessed as increase in lifespan of organism at 100 ug administered 24 hrs post inoculation for 9 days; format: functional, Ehrlich
[4] = system: Mus musculus; assay: Toxicity in Swiss albino mouse xenografted with mouse EAC assessed as haemoglobin level at 100 ug (reference value: 13.4 per g%); format: organism-based; conditions: in vivo
[5] = system: Mus musculus; assay: Toxicity in Swiss albino mouse xenografted with mouse EAC assessed as RBC level at 100 ug (reference value: 5.1/10^6 mm-3); format: organism-based; conditions: in vivo
[6] = system: Mus musculus; assay: Toxicity in Swiss albino mouse xenografted with mouse EAC assessed as total WBC level at 100 ug (reference value: 4.35/10^3 mm3); format: organism-based; conditions: in vivo
[7] = system: Mus musculus; assay: Toxicity in Swiss albino mouse xenografted with mouse EAC assessed as ALT level at 100 ug (reference value: 3.7 u/L); format: organism-based; conditions: in vivo
[8] = system: Ehrlich; assay: Antitumor activity against mouse EAC cells xenografted in Swiss albino mouse assessed as reduction in viable tumor cells at 100 ug after 5 days using giemsa staining by microscopy; format: functional
[9] = Antitumor activity against mouse EAC cells xenografted in Swiss albino mouse assessed as increase in lifespan of organism at 20 mg/kg, ip administered 24 hrs post inoculation for 9 days; format: functional, Ehrlich; conditions: route intraperitoneal
[10] = system: Mus musculus; assay: Toxicity in Swiss albino mouse xenografted with mouse EAC assessed as haemoglobin level at 20 mg/kg, ip (reference value: 13.4 per g%); format: organism-based; parameters: dose 20 mg/kg, route intraperitoneal; conditions: in vivo
[11] = system: Mus musculus; assay: Toxicity in Swiss albino mouse xenografted with mouse EAC assessed as RBC level at 20 mg/kg, ip (reference value: 5.1/10^6 mm-3); format: organism-based; parameters: dose 20 mg/kg, route intraperitoneal; conditions: in vivo
[12] = system: Mus musculus; assay: Toxicity in Swiss albino mouse xenografted with mouse EAC assessed as total WBC level at 20 mg/kg, ip (reference value: 4.35/10^3 mm3); format: organism-based; parameters: dose 20 mg/kg, route intraperitoneal; conditions: in vivo
[13] = system: Mus musculus; assay: Toxicity in Swiss albino mouse xenografted with mouse EAC assessed as ALT level at 20 mg/kg, ip (reference value: 3.7 u/L); format: organism-based; parameters: dose 20 mg/kg, route intraperitoneal; conditions: in vivo
[14] = system: Ehrlich; assay: Antitumor activity against mouse EAC cells xenografted in Swiss albino mouse assessed as reduction in viable tumor cells at 20 mg/kg, ip after 5 days using giemsa staining by microscopy; format: functional, organism-based; parameters: dose 20 mg/kg

## Cc1cccc(C2=CC(c3ccccc3)N3N=C(S(N)(=O)=O)SC3=N2)c1 (centres undefined)
[1]
  IC50: 72 µg/mL (≈ 187 µM)

## Cc1nc2sc(S(N)(=O)=O)nn2c(=O)c1/N=N/c1ccccc1
[1]
  IC50: 77 µg/mL (≈ 220 µM)

## COc1ccc(C2C=C(c3ccc(N)cc3)N=C3SC(S(N)(=O)=O)=NN32)cc1 (centres undefined)
[2]
  Activity: inactive
[1]
  IC50: 81 µg/mL (≈ 195 µM)

## Cc1cc(=O)n2nc(S(N)(=O)=O)sc2n1
[1]
  IC50: 76 µg/mL (≈ 309 µM)

## Nc1ccc(C2=CC(c3ccc(Cl)cc3)N3N=C(S(N)(=O)=O)SC3=N2)cc1 (centres undefined)
[2]
  Activity: Active
[1]
  IC50: 64 µg/mL (≈ 152 µM)
[3]
  Activity: 71.43%
[4]
  Activity: 11.1%
[5]
  Activity: 5.96%
[6]
  Activity: 9.45%
[7]
  Activity: 6.7%
[8]
  Activity: Active

## O=c1[nH]cc(F)c(=O)[nH]1 [FLUOROURACIL]
[9]
  Activity: 42.86%
[10]
  Activity: 15.6%
[11]
  Activity: 5.87%
[12]
  Activity: 14.7%
[13]
  Activity: 6.9%
[14]
  Activity: Active

## CC[n+]1c(-c2ccccc2)c2cc(N)ccc2c2ccc(N)cc21.[Br-] [HOMIDIUM BROMIDE]
[1]
  IC50: 1.4 µg/mL

## NS(=O)(=O)C1=NN2C(=NC(c3ccccc3)=CC2c2cc([N+](=O)[O-])ccc2Cl)S1 (centres undefined)
[1]
  IC50: 80 µg/mL (≈ 178 µM)

## NS(=O)(=O)c1nn2c(=O)cc(Cl)nc2s1
[1]
  IC50: 79 µg/mL (≈ 296 µM)

## Cc1nc2sc(S(N)(=O)=O)nn2c(=O)c1/N=N/c1ccc(Br)cc1
[1]
  IC50: 74 µg/mL (≈ 172 µM)

## Cc1ccc(/N=N/c2c(C)nc3sc(S(N)(=O)=O)nn3c2=O)cc1
[2]
  Activity: inactive
[1]
  IC50: 81 µg/mL (≈ 222 µM)

## Cc1nc2sc(S(N)(=O)=O)nn2c(=O)c1/N=N/c1ccc([N+](=O)[O-])cc1
[2]
  Activity: inactive
[1]
  IC50: 81 µg/mL (≈ 205 µM)

## COc1ccc(/N=N/c2c(C)nc3sc(S(N)(=O)=O)nn3c2=O)cc1
[2]
  Activity: inactive
[1]
  IC50: 81 µg/mL (≈ 213 µM)

## COc1ccc(C2C=C(c3ccccc3)N=C3SC(S(N)(=O)=O)=NN32)cc1OC (centres undefined)
[2]
  Activity: Active
[1]
  IC50: 62 µg/mL (≈ 144 µM)
[3]
  Activity: 57.14%
[8]
  Activity: Active

## NS(=O)(=O)c1nn2c(=O)cc(C(=O)NNc3ccccc3)nc2s1
[2]
  Activity: inactive
[1]
  IC50: 81 µg/mL (≈ 221 µM)

## NS(=O)(=O)C1=NN2C(=NC(c3ccccc3)=CC2c2ccc([N+](=O)[O-])cc2)S1 (centres undefined)
[2]
  Activity: inactive
[1]
  IC50: 81 µg/mL (≈ 195 µM)

## Cc1nc2sc(S(N)(=O)=O)nn2c(=O)c1/N=N/c1ccc(Cl)cc1
[1]
  IC50: 74 µg/mL (≈ 192 µM)

## NS(=O)(=O)C1=NN2C(=NC(c3ccccc3)=CC2c2ccc(Cl)cc2)S1 (centres undefined)
[2]
  Activity: Active
[1]
  IC50: 40 µg/mL (≈ 98.8 µM)
[3]
  Activity: 42.86%
[8]
  Activity: Active

## N=C1CC(=O)N=C2SC(S([NH-])(=O)=O)=NN12.[Na+]
[1]
  IC50: 76 µg/mL

## NS(=O)(=O)c1nn2c(=O)ccnc2s1
[1]
  IC50: 70 µg/mL (≈ 301 µM)
